# Test results published in US11065244B2, “Methods of use of tetrahydroberberine (THB)” (DIGNITY HEALTH, priority 2010, dated 2021).
# Columns and labels:
# [1] = molecular target: T1, pancreatic β-cell KATP channels (Rattus norvegicus, UniProt P70673+Q09429); assay: Whole-cell KATP currents induced by ramp pulses in rat pancreatic β-cells; format: cell-based; conditions: 100 μM bath application; external glucose 5.5 mM; ramp −90 to −50 mV
# T1 construct: Single Channel Currents of KATP Channels in Rat Pancreatic β-Cells; from tissue; host or cells: rat pancreatic β-cells
# Method: To determine whether or not THB and Ipt can block pancreatic β-cell KATP channels, whole-cell currents induced by repetitive ramp pulses from −90 to −50 mV (at 0.2 Hz) were recorded in voltage-clamp mode (external glucose=5.5 mM).
# SNc DA neurons = assay: Perforated patch current-clamp recording of membrane potential and firing of dissociated SNc DA neurons, substance applied alone; format: cell-based, rat
# Method: The protocol for preparation of single neurons from the rat SNc was approved by the Institutional Animal Care and Use Committee of the Barrow Neurological Institute. Single DA neurons were acutely dissociated from the SNc of 2-3-week-old Wistar rats following the protocol as previously described. Briefly, rats were anesthetized with isoflurane, and brain tissue was rapidly removed and immersed in cold (2-4° C.) dissection solution which contained: 136.7 mM NaCl, 5 mM KCl, 0.1 mM Na2HPO4, 0.2 mM KH2PO4, 9.84 mM HEPES, 16.6 mM D-glucose, 21.9 mM sucrose, pH 7.3, 330 mOsm, oxygenated with 100% O2 [8]. Three 400-μm coronal slices containing the SNc were cut using a vibrotome (Vibroslice 725M, WPI, Sarasota, Fla.). After cutting, slices were continuously bubbled with 95% O2-5% CO2 at room temperature (22±1° C.) for at least one hour in artificial cerebrospinal fluid (ACSF), which contained: 124 mM NaCl, 5 mM KCl, 24 mM NaHCO3, 1.3 mM MgSO4, 1.2 mM KH2PO4, 2.4 mM CaCl2, and 10 mM glucose, pH 7.4. Thereafter, slices were treated with pronase (1 mg per 6 ml) at 31° C. for 30 minutes in ACSF. The SNc was identified in a coronal slice using a stereo microscope with reference to the rat brain atlas, and was micro-punched out from slices using a well-polished needle. One punched piece was then transferred to a 35-mm culture dish filled with well-oxygenated standard extracellular solution, which contained: 150 mM NaCl, 5 mM KCl, 1 mM MgCl2, 2 mM CaCl2, 10 mM glucose 10, and 10 mM HEPES, pH 7.4 (with Tris-base). The punched piece was then dissociated mechanically using a fire-polished micro-Pasteur pipette under an inverted microscope (Olympus IX-70, Lake Success, N.Y.). The separated cells adhered to the bottom of the culture dish within 30 minutes. In the present study, we used only DA neurons that maintained their original morphological features of polygonal, large or medium somata with 2-4 thick primary dendritic processes were used.
# Perforated patch whole-cell recording techniques were employed as previously described. Pipettes (3-5 MΩ) used for perforated patch recording were filled with intracellular recording solution containing 140 mM potassium gluconate, 10 mM KCl, 5 mM MgCl2, and 10 mM HEPES, pH 7.2 (with Tris-OH). The amphotericin B was freshly prepared to 200-240 μg/ml from a 40 mg/ml in DMSO stock. The liquid junction potential was 14 mV calculated using Clamplex 9.2 (Axon Instruments, Foster City, Calif.) and corrections were made for junction potentials post-hoc. After tight seal (>2 GΩ) formation, it usually took about 5-20 min to convert to perforated patch mode, and an access resistance of 20-60 MΩ was accepted to start the experiments. Series resistance was not compensated in this study. The data were filtered at 2 kHz, acquired at 10 kHz and digitized on-line (Digidata 1322 series A/D board, Axon Instruments, Foster City, Calif.). […] Drug application was performed using a computer-controlled “U-tube” system as previously described. All experiments were performed at room temperature (22±1° C.). To enable identification of single, dissociated SNc neurons after a patch-clamp recording session, the recording pipette was filled with a fluorescent dye (lucifer yellow CH, Sigma Chemical Co., St. Louis, Mo., 1.0 mg/ml in the recording electrode) in some experiments. After conversion from the perforated patch to the conventional whole-cell recording mode, the dye was ejected into the cytoplasm by a pulse (200 ms, 0.5 Hz) of hyperpolarizing current (1.0 nA) for 3 min. Labeled cells were visualized using epifluorescence microscopy. […]
# [2] = tested on: D2 receptor and dopamine-opened K+ channels; assay: Dopamine-induced membrane potential hyperpolarization in dissociated SNc DA neurons; format: cell-based, rat
# Method: All experiments were performed at room temperature (22±1° C.).
# rat pancreatic islets = assay: Insulin release from rat pancreatic islets; format: cell-based; conditions: 100 μM; 5.5 mM glucose external; from 22.5±1.2
# Method: With 5.5 mM glucose in the external solution, basal insulin secretion was measured. […] Bath application of 100 μM THB increased insulin secretion from 22.5±1.2 to 39.4±1.5 pg/islet/min (FIG. 5; P<0.01; 6 cells) and 100 μM Ipt increased insulin secretion from 22.5±1.2 to 34.5±1.8 pg/islet/min (FIG. 11; P<0.05; 7 cells).
# T1 sequence (P70673 whole entry): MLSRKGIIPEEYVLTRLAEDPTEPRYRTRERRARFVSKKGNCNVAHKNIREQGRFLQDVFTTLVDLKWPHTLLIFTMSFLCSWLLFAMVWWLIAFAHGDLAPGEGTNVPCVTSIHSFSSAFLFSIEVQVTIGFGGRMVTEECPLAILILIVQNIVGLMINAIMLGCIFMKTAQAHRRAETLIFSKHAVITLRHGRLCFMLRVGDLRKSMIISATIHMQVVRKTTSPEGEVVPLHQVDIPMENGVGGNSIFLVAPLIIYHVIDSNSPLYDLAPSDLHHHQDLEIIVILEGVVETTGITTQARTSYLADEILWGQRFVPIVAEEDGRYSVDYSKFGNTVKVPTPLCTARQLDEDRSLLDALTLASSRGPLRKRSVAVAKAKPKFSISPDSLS
# T1 sequence (Q09429 whole entry): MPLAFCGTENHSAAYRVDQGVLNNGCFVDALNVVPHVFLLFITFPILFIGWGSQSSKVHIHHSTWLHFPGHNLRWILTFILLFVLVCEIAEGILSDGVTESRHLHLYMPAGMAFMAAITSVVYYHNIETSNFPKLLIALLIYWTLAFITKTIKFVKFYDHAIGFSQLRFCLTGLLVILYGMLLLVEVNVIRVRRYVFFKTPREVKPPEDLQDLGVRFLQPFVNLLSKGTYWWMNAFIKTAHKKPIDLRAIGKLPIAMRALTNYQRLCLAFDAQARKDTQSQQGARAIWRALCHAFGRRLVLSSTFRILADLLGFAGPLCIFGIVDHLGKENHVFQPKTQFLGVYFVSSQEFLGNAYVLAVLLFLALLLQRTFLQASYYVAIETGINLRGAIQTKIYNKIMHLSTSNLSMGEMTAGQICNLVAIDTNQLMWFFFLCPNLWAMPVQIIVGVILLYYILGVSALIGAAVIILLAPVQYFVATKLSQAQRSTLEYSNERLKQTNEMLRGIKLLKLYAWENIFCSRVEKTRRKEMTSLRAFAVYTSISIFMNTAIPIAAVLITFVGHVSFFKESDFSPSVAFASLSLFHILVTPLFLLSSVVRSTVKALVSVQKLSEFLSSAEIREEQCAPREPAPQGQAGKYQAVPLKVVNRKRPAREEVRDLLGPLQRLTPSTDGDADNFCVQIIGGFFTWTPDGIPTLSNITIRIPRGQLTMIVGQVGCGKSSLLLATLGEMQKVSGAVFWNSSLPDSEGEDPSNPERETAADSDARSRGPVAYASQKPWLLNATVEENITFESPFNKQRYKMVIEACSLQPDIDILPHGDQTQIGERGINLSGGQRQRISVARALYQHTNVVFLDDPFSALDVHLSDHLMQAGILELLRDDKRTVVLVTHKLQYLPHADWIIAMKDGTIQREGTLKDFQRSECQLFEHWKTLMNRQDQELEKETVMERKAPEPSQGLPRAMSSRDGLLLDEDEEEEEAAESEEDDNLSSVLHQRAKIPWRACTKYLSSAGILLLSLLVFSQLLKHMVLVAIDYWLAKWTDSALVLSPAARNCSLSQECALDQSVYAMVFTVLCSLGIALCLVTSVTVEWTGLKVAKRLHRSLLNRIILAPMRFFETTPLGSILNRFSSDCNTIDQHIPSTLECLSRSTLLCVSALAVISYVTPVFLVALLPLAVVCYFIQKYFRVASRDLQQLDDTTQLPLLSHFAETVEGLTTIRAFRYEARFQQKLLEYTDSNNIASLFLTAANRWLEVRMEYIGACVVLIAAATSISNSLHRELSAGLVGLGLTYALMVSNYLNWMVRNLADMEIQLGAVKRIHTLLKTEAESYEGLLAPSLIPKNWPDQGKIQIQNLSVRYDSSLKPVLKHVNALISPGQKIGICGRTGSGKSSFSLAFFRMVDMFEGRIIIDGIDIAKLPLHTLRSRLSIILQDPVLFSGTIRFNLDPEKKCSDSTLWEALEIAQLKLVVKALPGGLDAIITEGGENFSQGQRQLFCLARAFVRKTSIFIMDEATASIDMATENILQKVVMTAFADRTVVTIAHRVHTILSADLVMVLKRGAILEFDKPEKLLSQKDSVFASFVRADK
smiles,measurement,setting,value
"COc1ccc2c(c1OC)CN1CCc3cc4c(cc3C1C2)OCO4 (stereo not drawn) [THB, tetrahydroberberine]",effect on β-cell KATP channel-mediated whole-cell currents,[1],reduced these β-cell KATP channel-mediated currents
same,firing rate of spontaneous action potentials after exposure,"SNc DA neurons; 100 μM bath-perfusion, before exposure 1.4 Hz, n=7, p<0.05",2.2 Hz
same,membrane potential after exposure to substance alone,"SNc DA neurons; 100 μM, before: THB −46.5±0.9 (n=7), tolbutamide −44.4±1.6 (n=5)",−41.3±1.9 mV
same,membrane potential after co-application of dopamine with substance,"[2]; 100 μM THB (from −45.6±1.0, n=7), tolbutamide (from −45.3±2.3, n=4)",−38.6±1.2 mV
same,altered membrane potential on co-application with dopamine,[2]; difference THB vs tolbutamide p>0.05,7.0±0.9 mV
same,insulin secretion after bath application,rat pancreatic islets,39.4±1.5 pg/islet/min
